In PubChem BioAssay AID330 (DTP/NCI, 2004):
Several values for one entry are separate records, joined by “and”; a condition that tells them apart may be missing. Identical values can stand only once. Toxic doses and inconclusive results are not listed. How the source made its calls: active means survival T/C of 150% or more; inactive means T/C below 125% in these data.

System: P388 leukemia ip, CD2F1 mice, survival T/C
Experiment: NCI In Vivo Anticancer Drug Screen. Data for tumor model P388 Leukemia (intraperitoneal) in CD2F1 (CDF1) mice
Conditions: endpoint: median survival time, higher = longer survival
In short: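 Mice carrying the transplanted tumor received test compound or vehicle. Survival was recorded in each group, and the value is the treated-group measurement divided by that of the vehicle-treated control group.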

[1] = dose: 100.0 mg/kg/injection, schedule: Q01DX009 (ip), vehicle: saline with Tween-80
[2] = dose: 100.0 mg/kg/injection, schedule: Q04DX003 (ip), vehicle: saline sonified
[3] = dose: 200.0 mg/kg/injection, schedule: Q04DX003 (ip), vehicle: saline sonified
[4] = dose: 400.0 mg/kg/injection, schedule: Q04DX003 (ip), vehicle: saline sonified
[5] = dose: 60.0 mg/kg/injection, schedule: Q01DX005 (ip), vehicle: saline with Tween-80
[6] = dose: 120.0 mg/kg/injection, schedule: Q01DX005 (ip), vehicle: saline with Tween-80
[7] = dose: 240.0 mg/kg/injection, schedule: Q01DX005 (ip), vehicle: saline with Tween-80
[8] = dose: 25.0 mg/kg/injection, schedule: Q01DX009 (ip), vehicle: saline with Tween-80
[9] = dose: 50.0 mg/kg/injection, schedule: Q01DX009 (ip), vehicle: saline with Tween-80
[10] = dose: 12.5 mg/kg/injection, schedule: Q01DX005 (ip), vehicle: saline with Tween-80
[11] = dose: 25.0 mg/kg/injection, schedule: Q01DX005 (ip), vehicle: saline with Tween-80
[12] = dose: 50.0 mg/kg/injection, schedule: Q01DX005 (ip), vehicle: saline with Tween-80
[13] = dose: 200.0 mg/kg/injection, schedule: Q01DX009 (ip), vehicle: saline with Tween-80
[14] = dose: 400.0 mg/kg/injection, schedule: Q01DX009 (ip), vehicle: saline with Tween-80
[15] = dose: 60.0 mg/kg/injection, schedule: Q01DX005 (ip), vehicle: saline
[16] = dose: 120.0 mg/kg/injection, schedule: Q01DX005 (ip), vehicle: saline
[17] = dose: 30.0 mg/kg/injection, schedule: Q01DX005 (ip), vehicle: saline with Tween-80
[18] = dose: 50.0 mg/kg/injection, schedule: Q01DX009 (ip), vehicle: saline

Measured: T/C

COC1=C(C)[C@@H]2CC(=O)O[C@@H]3C[C@H]4[C@H](C)C[C@H](OC5OC(CO)C(O)C(O)C5O)C(=O)[C@]4(C)[C@@H](C1=O)[C@@]32C (stereo partly specified)
inactive: dose: 5.0 mg/kg/injection, schedule: Q01DX005 (ip), vehicle: Klucel (hydroxypropylcellulose) (HPC) 103 % of control | dose: 10.0 mg/kg/injection, schedule: Q01DX005 (ip), vehicle: Klucel (hydroxypropylcellulose) (HPC) 107 % of control | dose: 20.0 mg/kg/injection, schedule: Q01DX005 (ip), vehicle: Klucel (hydroxypropylcellulose) (HPC) 103 % of control

COCC/C(COC)=N\N=C(/CCOC)COC
inactive: [1] 109 % of control | [2] 104 % of control | [3] 100 % of control | [4] 104 % of control

O=Cc1cc(-c2ccccc2)n(-c2ccccc2)c1-c1ccccc1
inactive: [5] 96 % of control | [6] 98 % of control | [7] 97 % of control

CCCOC(=O)CCCC1=NC2=CC=CC3=NC(C)=NC(=N1)N23
inactive: [8] 107 % of control | [9] 104 % of control | [1] 104 % of control

Cc1ccc(NC2=C([n+]3ccc(C)cc3)C(=O)c3ccccc3C2=O)cc1
inactive: [10] 100 % of control | [11] 109 % of control | [12] 124 % of control

Nc1cc(-c2ccc(Br)cc2)nn1-c1nc(-c2ccc(Br)cc2)cs1
inactive: dose: 25.0 mg/kg/injection, schedule: Q01DX009 (ip), vehicle: Klucel (hydroxypropylcellulose) (HPC) 87 % of control | dose: 50.0 mg/kg/injection, schedule: Q01DX009 (ip), vehicle: Klucel (hydroxypropylcellulose) (HPC) 86 % of control | dose: 100.0 mg/kg/injection, schedule: Q01DX009 (ip), vehicle: Klucel (hydroxypropylcellulose) (HPC) 87 % of control | dose: 200.0 mg/kg/injection, schedule: Q01DX009 (ip), vehicle: Klucel (hydroxypropylcellulose) (HPC) 89 % of control

CCO/C=C1/N=C(c2cc(Cl)cc([N+](=O)[O-])c2)OC1=O
inactive: [5] 101 % of control | [6] 101 % of control | [7] 93 % of control

CC(CCc1cccc2ccccc12)(C(=O)O)C(=O)O
inactive: dose: 50.0 mg/kg/injection, schedule: Q01DX009 (ip), vehicle: saline sonified 90 % of control | dose: 100.0 mg/kg/injection, schedule: Q01DX009 (ip), vehicle: saline sonified 100 % of control | dose: 200.0 mg/kg/injection, schedule: Q01DX009 (ip), vehicle: saline sonified 90 % of control

Cc1ccc(S(=O)(=O)NNC(=O)CCC(=O)NS(C)(=O)=O)cc1
inactive: dose: 100.0 mg/kg/injection, schedule: Q01DX001 (ip), vehicle: saline with Tween-80 100 % of control | dose: 200.0 mg/kg/injection, schedule: Q01DX001 (ip), vehicle: saline with Tween-80 97 % of control | dose: 400.0 mg/kg/injection, schedule: Q01DX001 (ip), vehicle: saline with Tween-80 93 % of control

CCCCOC(OCCCC)C(OCCCC)OCCCC
inactive: [1] 105 % of control | [2] 95 % of control | [13] 110 % of control | [3] 100 % of control | [14] 105 % of control | [4] 104 % of control

CC(C)(C)OC(=O)NC(CC(=O)OCc1ccccc1)C(=O)ON1C(=O)CCC1=O (stereo unspecified)
inactive: dose: 50.0 mg/kg/injection, schedule: Q01DX005 (ip), vehicle: Klucel (hydroxypropylcellulose) (HPC) 106 % of control | dose: 100.0 mg/kg/injection, schedule: Q01DX005 (ip), vehicle: Klucel (hydroxypropylcellulose) (HPC) 106 % of control | dose: 200.0 mg/kg/injection, schedule: Q01DX005 (ip), vehicle: Klucel (hydroxypropylcellulose) (HPC) 97 % of control

O=C1c2ccccc2C(=O)N1C(=NC1CCCCC1)c1ccccc1
inactive: dose: 100.0 mg/kg/injection, schedule: Q04DX003 (ip), vehicle: Klucel (hydroxypropylcellulose) (HPC) 104 % of control | dose: 200.0 mg/kg/injection, schedule: Q04DX003 (ip), vehicle: Klucel (hydroxypropylcellulose) (HPC) 101 % of control | dose: 400.0 mg/kg/injection, schedule: Q04DX003 (ip), vehicle: Klucel (hydroxypropylcellulose) (HPC) 109 % of control

CCCc1c(-c2ccccc2)nc(N)nc1-c1nc(N)nc(-c2ccccc2)c1CCC
inactive: [15] 100 % of control | [16] 95 % of control

Cc1ccccc1NC(=O)Oc1ccc(Cl)cc1C(=O)c1ccccc1
inactive: [5] 100 % of control | [6] 109 % of control | [7] 103 % of control

CC(C(=O)O)c1ccc(C(=O)c2cccs2)cc1 (stereo unspecified)
inactive: [9] 97 % of control | [1] 97 % of control | [13] 97 % of control

COc1ccc(C(=O)C(C)(c2nc3n(c2O)C(=N)N=N3)c2nc3n(c2O)C(=N)N=N3)cc1 (stereo unspecified)
inactive: [15] 100 % of control | [16] 102 % of control | dose: 240.0 mg/kg/injection, schedule: Q01DX005 (ip), vehicle: saline 106 % of control

O=C(Nc1c(Cl)cccc1Cl)Oc1cccc2cccnc12
inactive: dose: 15.0 mg/kg/injection, schedule: Q01DX005 (ip), vehicle: saline with Tween-80 97 % of control | [17] 107 % of control | [5] 100 % of control and 92 % of control

CCCCOC1OCN(CCCN(C)C)CC1(C)C (stereo unspecified)
inactive: [9] 108 % of control | [1] 122 % of control | [13] 122 % of control

O=C(O)C(O)C(Cl)(Cl)Cl (stereo unspecified)
inactive: dose: 25.0 mg/kg/injection, schedule: Q01DX009 (ip), vehicle: saline 107 % of control | [18] 96 % of control | dose: 100.0 mg/kg/injection, schedule: Q01DX009 (ip), vehicle: saline 88 % of control | dose: 200.0 mg/kg/injection, schedule: Q01DX009 (ip), vehicle: saline 91 % of control

CC(C)CCc1c(N)nc(N)[nH]c1=O
inactive: [10] 101 % of control | [11] 97 % of control | [12] 97 % of control

CCN(CC)OC(=O)/C=C/c1ccccc1
inactive: [17] 95 % of control | [5] 98 % of control and 93 % of control | [6] 86 % of control

COc1cccnc1/C=N/NC(N)=S
inactive: dose: 3.13 mg/kg/injection, schedule: Q01DX009 (ip), vehicle: saline with Tween-80 124 % of control

O=[N+]([O-])c1cccc(/C=C/S(=O)(=O)Cc2ccccc2)c1
inactive: [12] 101 % of control | dose: 100.0 mg/kg/injection, schedule: Q01DX005 (ip), vehicle: saline with Tween-80 100 % of control | dose: 200.0 mg/kg/injection, schedule: Q01DX005 (ip), vehicle: saline with Tween-80 92 % of control

c1ccc(CSC2=NCCN2)cc1
inactive: dose: 12.5 mg/kg/injection, schedule: Q01DX009 (ip), vehicle: saline 93 % of control | [18] 91 % of control

CN1N=Nc2ccccc2C1(O)c1ccccc1 (stereo unspecified)
inactive: dose: 100.0 mg/kg/injection, schedule: Q01DX001 (ip), vehicle: Klucel (hydroxypropylcellulose) (HPC) 98 % of control | dose: 200.0 mg/kg/injection, schedule: Q01DX001 (ip), vehicle: Klucel (hydroxypropylcellulose) (HPC) 98 % of control | dose: 400.0 mg/kg/injection, schedule: Q01DX001 (ip), vehicle: Klucel (hydroxypropylcellulose) (HPC) 102 % of control

CC(=O)[C@H]1CC[C@H]2[C@@H]3C[C@H](F)C4=CC(=O)CC[C@]4(C)[C@H]3C(=O)C[C@]12C
inactive: [1] 100 % of control | [13] 100 % of control | [14] 100 % of control

COc1cccc(C[n+]2ccccc2C#N)c1OC
inactive: dose: 3.12 mg/kg/injection, schedule: Q04DX002 (ip), vehicle: saline 101 % of control | dose: 6.25 mg/kg/injection, schedule: Q04DX002 (ip), vehicle: saline 102 % of control | dose: 12.5 mg/kg/injection, schedule: Q04DX002 (ip), vehicle: saline 103 % of control and 92 % of control

CCCCCCCCCCCCCCCCS.[Ge]
inactive: dose: 12.5 mg/kg/injection, schedule: Q01DX009 (ip), vehicle: saline with Tween-80 106 % of control | [8] 98 % of control | [9] 104 % of control
